From US20230150979A1, “AMIDE-DISUBSTITUTED PYRIDINE OR PYRIDAZINE COMPOUNDS” (BRISTOL-MYERS SQUIBB COMPANY, priority 2019, published 2023)

Test system: IFNα-induced STAT phosphorylation (pSTAT5) in human whole blood, CD3 positive population
Assay: IFNα-Induced STAT Phosphorylation in Human Whole Blood
Assay type: cell-based
Settings: 1 h incubation with compound, 1000 U/mL recombinant human IFNα A/D for 15 min, pSTAT5 (pY694) median fluorescence in CD3 positive cells, read-out: Human WB IFNα-Induced Stat Phosph. (IC50)
Procedure: IFNα-Induced STAT Phosphorylation in Human Whole Blood
After an hour long incubation with compound, human whole blood (drawn with either EDTA or ACD-A as anti-coagulant) was stimulated with 1000 U/mL recombinant human IFNα A/D (R&D Systems 11200-2) for 15 min. The stimulation was stopped by adding Fix/Lyse buffer (BD 558049). Cells were stained with a CD3 FITC antibody (BD 555916), washed, and permeabilized on ice using Perm III buffer (BD 558050). Cells were then stained with an Alexa-Fluor 647 pSTAT5 (pY694) antibody (BD 612599) for 30 min prior to analysis on the FACS Canto II. The amount of pSTAT5 expression was quantitated by median fluorescence intensity after gating on the CD3 positive population.

| SMILES | IC50 [nM] |
| --- | --- |
| [2H]C([2H])([2H])NC(=O)c1nnc(N2CCOC2=O)cc1Nc1cccc(-c2ncc(N3CCOC3=O)cn2)c1OC [Example 20] | > 10000 |
| [2H]C([2H])([2H])NC(=O)c1nnc(NC(N)=O)cc1Nc1cccc(-c2ncn(C)n2)c1OC [Example 7, 4-((2-methoxy-3-(1-methyl-1H-1,2,4-triazol-3-yl)phenyl)amino)-N-(methyl-d3)-6-ureidopyridazine-3-carboxamide] | 320 |
| [2H]C([2H])([2H])NC(=O)c1nnc(NC(=O)N2CCOCC2)cc1Nc1cccc(-c2ncn(C)n2)c1OC [Example 26] | 1180 |
| [2H]C([2H])([2H])NC(=O)c1nnc(NC(=O)N2CCCCC2)cc1Nc1cccc(-c2ncn(C)n2)c1OC [Example 12] | 610 |
| [2H]C([2H])([2H])NC(=O)c1nnc(NC(=O)OC)cc1Nc1cccc(-c2noc(COC)n2)c1OC [Example 14] | 1100 |
| [2H]C([2H])([2H])NC(=O)c1nnc(NC(=O)N(C)C2CC2)cc1Nc1cccc(-c2ncn(C)n2)c1OC [Example 46] | 2210 |
| [2H]C([2H])([2H])NC(=O)c1cnc(NC(=O)OC)cc1Nc1cccc(-c2noc(C)n2)c1OC [Example 73] | 770 |
| [2H]C([2H])([2H])NC(=O)c1cnc(NC(=O)OC)cc1Nc1cccc(-c2noc(CN3CCOCC3)n2)c1OC [Example 71] | 300 |
| [2H]C([2H])([2H])NC(=O)c1nnc(NC(=O)OC)cc1Nc1cccc(-c2noc(CN3CCOCC3)n2)c1OC [Example 59] | 290 |
| CCNC(=O)Nc1cc(Nc2ccccc2S(C)(=O)=O)c(C(=O)NC)cn1 [Example 9] | 1100 |
| [2H]C([2H])([2H])NC(=O)c1nnc(NC(=O)OC)cc1Nc1cccc(-c2noc(CN3CCOC3=O)n2)c1OC [Example 70] | 1150 |
| [2H]C([2H])([2H])NC(=O)c1nnc(NC(=O)N(C)CCOC)cc1Nc1cccc(-c2ncn(C)n2)c1OC [Example 43] | 570 |
| CNC(=O)Nc1cc(Nc2ccccc2S(C)(=O)=O)c(C(=O)NC)cn1 [Example 10] | 3690 |
| [2H]C([2H])([2H])NC(=O)c1cnc(NC(=O)OCC)cc1Nc1cccc(-c2noc(C)n2)c1OC [Example 8] | 300 |
| [2H]C([2H])([2H])NC(=O)c1nnc(NC(=O)OC)cc1Nc1cccc(-c2noc(C)n2)c1OC [Example 63] | 970 |
| [2H]C([2H])([2H])NC(=O)c1cnc(NC(=O)NC)cc1Nc1cccc(-c2noc(C)n2)c1OC [Example 74] | 210 |
| [2H]C([2H])([2H])NC(=O)c1nnc(NC(=O)N(C)CC(=C)C)cc1Nc1cccc(-c2ncn(C)n2)c1OC [Example 47] | 430 |
| [2H]C([2H])([2H])NC(=O)c1nnc(NC(=O)OC)cc1Nc1cccc(-c2noc(CO)n2)c1OC [Example 58] | 1860 |

| SMILES | IC50 [nM] |
| --- | --- |
| [2H]C([2H])([2H])NC(=O)c1nnc(NC(=O)OC)cc1Nc1ccccc1NS(=O)(=O)C1CC1 [Example 5, methyl (5-((2-(cyclopropanesulfonamido)phenyl)amino)-6-((methyl-d3)carbamoyl)pyridazin-3-yl)carbamate] | 750 |
| [2H]C([2H])([2H])NC(=O)c1nnc(NC(=O)OC)cc1Nc1cccc(-c2noc(CN3CCN(C(=O)OC)CC3)n2)c1OC [Example 65] | 330 |
| [2H]C([2H])([2H])NC(=O)c1nnc(NC(=O)NCc2ccccc2)cc1Nc1cccc(-c2ncn(C)n2)c1OC [Example 40] | 290 |
| [2H]C([2H])([2H])NC(=O)c1nnc(NC(=O)NC(C)(C)C)cc1Nc1cccc(-c2ncn(C)n2)c1OC [Example 24] | 230 |
| [2H]C([2H])([2H])NC(=O)c1nnc(NC(=O)NC2CC2)cc1Nc1cccc(-c2noc(C)n2)c1OC [Example 77] | 210 |
| [2H]C([2H])([2H])NC(=O)c1nnc(NC(=O)OC)cc1Nc1ccccc1S(C)(=O)=O [Example 4, methyl (6-((methyl-d3)carbamoyl)-5-((2-(methylsulfonyl)phenyl)amino)pyridazin-3-yl)carbamate] | > 10000 |
| [2H]C([2H])([2H])NC(=O)c1nnc(NC(=O)OC)cc1Nc1cccc(-c2ncc(C(=O)N(C)C)s2)c1OC [Example 53] | 840 |
| [2H]C([2H])([2H])NC(=O)c1nnc(NC(=O)N(C)C)cc1Nc1cccc(-c2ncn(C)n2)c1OC [Example 22] | 220 |
| [2H]C([2H])([2H])NC(=O)c1nnc(NC(=O)OC)cc1Nc1ccccc1NS(C)(=O)=O [Example 52] | > 10000 |
| [2H]C([2H])([2H])NC(=O)c1nnc(NC(=O)N(C)CC)cc1Nc1cccc(-c2ncn(C)n2)c1OC [Example 42] | 350 |
| [2H]C([2H])([2H])NC(=O)c1nnc(NC(=O)N2CCNCC2)cc1Nc1cccc(-c2ncn(C)n2)c1OC [Example 28] | > 10000 |
| COC(=O)Nc1cc(Nc2cccc(-c3noc(C)n3)c2OC)c(C(N)=O)nn1 [Example 67] | 270 |
| [2H]C([2H])([2H])NC(=O)c1nnc(NC(=O)OC)cc1Nc1cccc(-c2ncn(C)n2)c1OC [Example 41] | 210 |
| [2H]C([2H])([2H])NC(=O)c1nnc(NC(=O)Nc2cccc(C)c2)cc1Nc1cccc(-c2ncn(C)n2)c1OC [Example 35] | 500 |
| [2H]C([2H])([2H])NC(=O)c1nnc(NC(=O)NCCN(C)C)cc1Nc1cccc(-c2ncn(C)n2)c1OC [Example 75] | 470 |
| CNC(=O)c1cnc(NC(=O)Nc2ccccc2)cc1Nc1ccccc1S(C)(=O)=O [Example 6, N-methyl-4-((2-(methylsulfonyl)phenyl)amino)-6-(3-phenylureido)nicotinamide] | > 10000 |
| [2H]C([2H])([2H])NC(=O)c1nnc(NC(=O)N(C)CCC)cc1Nc1cccc(-c2ncn(C)n2)c1OC [Example 44] | 330 |
| [2H]C([2H])([2H])NC(=O)c1nnc(NC(=O)OC)cc1Nc1cccc(-c2ncc(C(=O)N3CCC3)s2)c1OC [Example 55] | 760 |

Now those with a lower IC50, led by results:

| IC50 [nM] | SMILES |
| --- | --- |
| 200 | [2H]C([2H])([2H])NC(=O)c1nnc(NC(=O)OC)cc1Nc1cccc(-c2noc(CN3CCCS3(=O)=O)n2)c1OC [Example 68] |
| 200 | [2H]C([2H])([2H])NC(=O)c1cnc(NC(=O)OC(C)C)cc1Nc1cccc(-c2ncn(C)n2)c1OC [Example 32] |
| 190 | [2H]C([2H])([2H])NC(=O)c1nnc(NC(=O)NC)cc1Nc1cccc(-c2noc(C)n2)c1OC [Example 3, 4-((2-methoxy-3-(5-methyl-1,2,4-oxadiazol-3-yl)phenyl)amino)-N-(trideuteromethyl)-6-(3-methylureido)pyridazine-3-carboxamide] |
| 190 | [2H]C([2H])([2H])NC(=O)c1nnc(NC(=O)N(C)Cc2ccco2)cc1Nc1cccc(-c2ncn(C)n2)c1OC [Example 49] |
| 160 | [2H]C([2H])([2H])NC(=O)c1cnc(NC(=O)NCCOC)cc1Nc1cccc(-c2noc(C)n2)c1OC [Example 76] |
| 150 | [2H]C([2H])([2H])NC(=O)c1nnc(NC(=O)NCCCC)cc1Nc1cccc(-c2ncn(C)n2)c1OC [Example 23] |
| 150 | [2H]C([2H])([2H])NC(=O)c1cnc(NC(=O)OCCC)cc1Nc1cccc(-c2ncn(C)n2)c1OC [Example 50] |
| 150 | [2H]C([2H])([2H])NC(=O)c1nnc(NC(=O)NC(C)C)cc1Nc1cccc(-c2ncn(C)n2)c1OC [Example 18] |
| 150 | [2H]C([2H])([2H])NC(=O)c1nnc(NC(=O)NCC(C)C)cc1Nc1cccc(-c2ncn(C)n2)c1OC [Example 36] |
| 140 | COC(=O)Nc1cc(Nc2cccc(-c3noc(CN4CCN(C(=O)OC)CC4)n3)c2OC)c(C(N)=O)nn1 [Example 60] |
| 140 | [2H]C([2H])([2H])NC(=O)c1nnc(NC(=O)NCCOC)cc1Nc1cccc(-c2ncn(C)n2)c1OC [Example 27] |
| 130 | [2H]C([2H])([2H])NC(=O)c1cnc(NC(=O)OC)cc1Nc1cccc(-c2nnn(C)n2)c1OC [Example 38] |
| 120 | [2H]C([2H])([2H])NC(=O)c1nnc(NC(=O)NC2CCCCC2)cc1Nc1cccc(-c2ncn(C)n2)c1OC [Example 33] |
| 110 | [2H]C([2H])([2H])NC(=O)c1cnc(NC(=O)OCC)cc1Nc1cccc(-c2ncn(C)n2)c1OC [Example 29] |
| 110 | [2H]C([2H])([2H])NC(=O)c1nnc(NC(=O)NCC)cc1Nc1cccc(-c2noc(C)n2)c1OC [Example 2, 6-(3-ethylureido)-4-((2-methoxy-3-(5-methyl-1,2,4-oxadiazol-3-yl)phenyl)amino)-N-(trideuteromethyl)pyridazine-3-carboxamide] |
| 100 | COC(=O)Nc1cc(Nc2cccc(-c3noc(CN4CCN(S(C)(=O)=O)CC4)n3)c2OC)c(C(N)=O)nn1 [Example 64] |
| 100 | [2H]C([2H])([2H])NC(=O)c1cnc(NC(=O)OC)cc1Nc1cccc(-c2ncn(C)n2)c1OC [Example 30] |
| 100 | [2H]C([2H])([2H])NC(=O)c1nnc(NC(=O)OC)cc1Nc1cccc(-c2noc(CN(C)S(C)(=O)=O)n2)c1OC [Example 62] |
| 90 | COC(=O)Nc1cc(Nc2cccc(-c3noc(CN(C)S(C)(=O)=O)n3)c2OC)c(C(N)=O)nn1 [Example 51] |
| 80 | [2H]C([2H])([2H])NC(=O)c1nnc(NC(=O)NC)cc1Nc1cccc(-c2ncn(C)n2)c1OC [Example 45] |
| 60 | [2H]C([2H])([2H])NC(=O)c1nnc(NC(=O)NCC#C)cc1Nc1cccc(-c2ncn(C)n2)c1OC [Example 11] |
| 30 | COC(=O)Nc1cc(Nc2cccc(-c3noc(CN4CCCCS4(=O)=O)n3)c2OC)c(C(N)=O)nn1 [Example 54] |
| 20 | [2H]C([2H])([2H])NC(=O)c1nnc(NC(=O)NCC)cc1Nc1cccc(-c2ncn(C)n2)c1OC [Example 16] |
